Data as given in publication PMC9516332 (Frontiers in Oncology, 2022).
Where two headings read alike, the source gives them in different places.

Assays:
Assay in all cases: Kinase panel profiling at 1 µmol/L (MSA or IMAP), percentage inhibition
Type in all cases: biochemical
[1] = molecular target: panel of 255 wild-type kinases (Homo sapiens, UniProt Q9Y5S2); conditions: read-out: %-inhibition, MRCKβ
[2] = molecular target: T1, panel of 255 wild-type kinases (Homo sapiens, UniProt O15146); conditions: read-out: %-inhibition, MUSK
T1 sequence (O15146 24-869): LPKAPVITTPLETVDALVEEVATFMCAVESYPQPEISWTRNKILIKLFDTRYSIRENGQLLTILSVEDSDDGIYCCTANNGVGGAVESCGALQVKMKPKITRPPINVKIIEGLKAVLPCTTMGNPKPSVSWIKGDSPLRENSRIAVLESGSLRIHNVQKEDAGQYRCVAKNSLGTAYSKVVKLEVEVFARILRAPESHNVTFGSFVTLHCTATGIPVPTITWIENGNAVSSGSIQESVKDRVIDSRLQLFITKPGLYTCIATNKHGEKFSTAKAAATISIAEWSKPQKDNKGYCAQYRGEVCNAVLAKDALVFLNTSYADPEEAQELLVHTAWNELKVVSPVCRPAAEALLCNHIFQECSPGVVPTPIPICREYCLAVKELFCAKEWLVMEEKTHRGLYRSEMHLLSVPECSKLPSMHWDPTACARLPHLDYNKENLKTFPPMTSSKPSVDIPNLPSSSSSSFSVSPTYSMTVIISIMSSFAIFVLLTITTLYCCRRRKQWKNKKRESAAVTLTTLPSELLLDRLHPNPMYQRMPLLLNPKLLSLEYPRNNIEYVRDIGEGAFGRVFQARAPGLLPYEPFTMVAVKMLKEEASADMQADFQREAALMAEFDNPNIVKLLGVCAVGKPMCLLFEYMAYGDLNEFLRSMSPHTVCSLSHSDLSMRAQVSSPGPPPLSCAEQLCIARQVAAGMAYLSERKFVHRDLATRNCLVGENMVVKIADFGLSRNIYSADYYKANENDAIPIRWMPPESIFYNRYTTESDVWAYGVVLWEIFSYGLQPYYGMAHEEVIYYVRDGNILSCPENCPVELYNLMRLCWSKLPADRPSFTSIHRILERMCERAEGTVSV

[3] = molecular target: panel of 255 wild-type kinases (Homo sapiens, UniProt Q9UM73); conditions: read-out: %-inhibition ALK
[4] = molecular target: T2, panel of 255 wild-type kinases (Homo sapiens, UniProt Q96KB5); conditions: read-out: %-inhibition at 1 µmol/L, PBK
T2 sequence (Q96KB5 1-322): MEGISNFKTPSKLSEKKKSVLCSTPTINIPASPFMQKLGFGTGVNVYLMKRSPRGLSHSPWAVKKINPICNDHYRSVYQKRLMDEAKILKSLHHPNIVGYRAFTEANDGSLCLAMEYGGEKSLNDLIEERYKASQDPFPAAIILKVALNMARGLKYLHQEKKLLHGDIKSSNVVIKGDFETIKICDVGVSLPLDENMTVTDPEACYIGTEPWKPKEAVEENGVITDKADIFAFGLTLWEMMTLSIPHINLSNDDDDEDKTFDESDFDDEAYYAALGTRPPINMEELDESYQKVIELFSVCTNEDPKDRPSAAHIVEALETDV

[5] = molecular target: panel of 255 wild-type kinases (Homo sapiens, UniProt Q9Y6E0); conditions: read-out: %-inhibition, MST3
[6] = molecular target: panel of 255 wild-type kinases (Homo sapiens, UniProt Q96RG2); conditions: read-out: %-inhibition, PASK
[7] = molecular target: panel of 255 wild-type kinases (Homo sapiens, UniProt P53355); conditions: read-out: %-inhibition at 1 µmol/L, DAPK1
[8] = molecular target: T3, panel of 255 wild-type kinases (Homo sapiens, UniProt Q9UHD2); conditions: read-out: %-inhibition at 1 µmol/L, TBK1
T3 sequence (Q9UHD2 1-729): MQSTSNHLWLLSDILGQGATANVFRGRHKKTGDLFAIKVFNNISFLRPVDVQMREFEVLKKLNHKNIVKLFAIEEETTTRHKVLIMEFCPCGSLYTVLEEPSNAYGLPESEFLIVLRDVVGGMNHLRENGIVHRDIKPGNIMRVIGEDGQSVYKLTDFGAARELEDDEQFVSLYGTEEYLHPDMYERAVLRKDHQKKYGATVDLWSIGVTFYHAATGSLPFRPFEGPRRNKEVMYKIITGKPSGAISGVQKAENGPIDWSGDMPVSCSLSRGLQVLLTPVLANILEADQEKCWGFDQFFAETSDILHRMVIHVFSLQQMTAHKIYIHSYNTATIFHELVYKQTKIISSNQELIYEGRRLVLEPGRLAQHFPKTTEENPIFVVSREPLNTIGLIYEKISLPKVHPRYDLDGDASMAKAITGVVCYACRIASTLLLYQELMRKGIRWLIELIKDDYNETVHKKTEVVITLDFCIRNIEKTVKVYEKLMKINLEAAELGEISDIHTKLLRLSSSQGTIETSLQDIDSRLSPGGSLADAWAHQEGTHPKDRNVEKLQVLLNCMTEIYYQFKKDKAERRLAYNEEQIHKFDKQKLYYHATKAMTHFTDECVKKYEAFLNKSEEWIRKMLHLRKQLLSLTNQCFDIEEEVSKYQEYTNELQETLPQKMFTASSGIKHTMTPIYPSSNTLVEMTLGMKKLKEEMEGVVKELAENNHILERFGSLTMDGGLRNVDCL

[9] = molecular target: panel of 255 wild-type kinases (Homo sapiens, UniProt Q8IU85); conditions: read-out: %-inhibition CaMK1δ
[10] = molecular target: panel of 255 wild-type kinases (Homo sapiens, UniProt P16591); conditions: read-out: %-inhibition at 1 µmol/L, FER
[11] = molecular target: panel of 255 wild-type kinases (Homo sapiens, UniProt Q05397); conditions: read-out: %-inhibition at 1 µmol/L, FAK
[12] = MRCKβ, 1 µmol/L single concentration
[13] = MUSK, 1 µmol/L single concentration
[14] = ALK kinase assay, 1 µmol/L single concentration
[15] = kinase PBK, 1 µmol/L single concentration
[16] = MST3, 1 µmol/L single concentration
[17] = PASK, 1 µmol/L single concentration
[18] = kinase DAPK1, 1 µmol/L single concentration
[19] = kinase TBK1, 1 µmol/L single concentration
[20] = CaMK1δ kinase assay, 1 µmol/L single concentration
[21] = kinase FER, 1 µmol/L single concentration
[22] = kinase FAK, 1 µmol/L single concentration

SMILES	inhibition at 1 µM [1, 12]	inhibition at 1 µM [2, 13]	inhibition at 1 µM [3, 14]	inhibition at 1 µM [4, 15]	inhibition at 1 µM [5, 16]	inhibition at 1 µM [6, 17]	inhibition at 1 µM [7, 18]	inhibition at 1 µM [8, 19]	inhibition at 1 µM [9, 20]	inhibition at 1 µM [10, 21]	inhibition at 1 µM [11, 22]	also measured
COC(=O)N[C@@H](C)CNc1nccc(-c2cn(C(C)C)nc2-c2cc(Cl)cc(NS(C)(=O)=O)c2F)n1 [encorafenib]	1.73%	-1.72%	8%	8%	7%	-3%	-1%	1.21%	-7%	5%	-3%	
C[C@H](Nc1ncnc2nc[nH]c12)c1cc2cccc(Cl)c2c(=O)n1-c1ccccc1 [duvelisib]	-7%	-4.45%	3.74%	-1.84%	0.418%	-0.608%	-3.23%	-2.46%	6%	-1.81%	4%	
CCN1CCN(c2ccc(Nc3cc(N(C)C(=O)Nc4c(Cl)c(OC)cc(OC)c4Cl)ncn3)cc2)CC1 [infigratinib]	-0.837%	24%	43%	-1.71%	7%	-1.46%	-3%	-4%	2.23%	9.48%	-4.48%	
CNC(=O)c1ccc(-c2cnc3ncc(Cc4ccc5ncccc5c4)n3n2)cc1F [capmatinib]												inhibition at 1 µM [1]: -1.73%; inhibition at 1 µM [2]: 1.33%; inhibition at 1 µM [3]: 28%; inhibition at 1 µM [4]: -4%; inhibition at 1 µM [5]: 0.296%; inhibition at 1 µM [6]: -5%; inhibition at 1 µM [7]: -2.82%; inhibition at 1 µM [8]: -2.83%; inhibition at 1 µM [9]: -10%; inhibition at 1 µM [10]: 2.2%; inhibition at 1 µM [11]: -6%
FC(F)(F)c1ccc(CNc2ccc(Cc3c[nH]c4ncc(Cl)cc34)cn2)cn1 [pexidartinib]	2.43%	33%	11%	-1.68%	5%	6%	-9%	6%	4%	21%	30%	
O=C(Nc1cnn2ccc(N3CCC[C@@H]3c3cc(F)ccc3F)nc12)N1CC[C@H](O)C1 [larotrectinib]	-2.21%	32%	7%	-5.44%	1.65%	0.745%	-4%	0.0799%	3.44%	3.72%	4%	
CCc1nc(C(N)=O)c(Nc2ccc(N3CCC(N4CCN(C)CC4)CC3)c(OC)c2)nc1NC1CCOCC1 [gilteritinib]	47%	99%	101%	-2.54%	5%	2.54%	71%	24%	39%	99%		inhibition at 1 µM [11]: 81%
CCn1c(=O)c(-c2cc(NC(=O)Nc3ccccc3)c(F)cc2Br)cc2cnc(NC)cc21 [ripretinib]	-1.41%	11%	2.68%	-4%	-4%	-1%	-10%	0.403%	2.32%	32%	0.833%	
CN1CCN(c2ccc(C(=O)Nc3n[nH]c4ccc(Cc5cc(F)cc(F)c5)cc34)c(NC3CCOCC3)c2)CC1 [entrectinib]	-7%	100%	100%	-5.43%	7.48%	1.19%	16%	8%	16%	99%		
Cn1cnc2c(F)c(Nc3ccc(Br)cc3F)c(C(=O)NOCCO)cc21 [binimetinib]	1.58%	-4.46%	6.37%	0.203%	1.89%	-2.45%	1.69%	0.416%	-8%	4.71%	-1.33%	
Cn1cnc2c(F)c(Nc3ccc(Br)cc3Cl)c(C(=O)NOCCO)cc21 [selumetinib]	0.656%	7%		-3%	3%	-2%	2.59%	-1.18%	-3.34%	1.22%	-1.9%	
C[C@H]1Oc2cc(cnc2N)-c2c(nn(C)c2C#N)CN(C)C(=O)c2ccc(F)cc21 [lorlatinib]	2.78%	47%		1.39%	-1.26%	0.792%	6.55%	-1.23%	7%			
